Experimental data reported in ChEMBL document CHEMBL5257024, “Synthesis of α,β-Unsaturated Carbonyl-Based Compounds, Oxime and Oxime Ether Analogs as Potential Anticancer Agents for Overcoming Cancer Multidrug Resistance by Modulation of Efflux Pumps in Tumor Cells” (J Med Chem, 2016).
Active and inactive are the calls of the source. No cut-off for these calls is given here.

How the values were obtained:
[1] = Cytotoxicity against human MCF-10A cells assessed as cell viability incubated for 96 hrs by MTT assay; type: toxicity, cell-based; parameters: concentration or dose not given beside the values; conditions: read-out: Activity
MIA PaCa-2 = assay: Antiproliferative activity against human MIA PaCa-2 cells assessed as inhibition of cell growth incubated for 48 hrs by propidium iodide staining based fluorometer assay; type: functional; conditions: MIA PaCa-2, 48 h
MCF7 = assay: Antiproliferative activity against human MCF7 cells assessed as inhibition of cell growth incubated for 48 hrs by propidium iodide staining based fluorometer assay; type: functional; conditions: MCF7, 48 h
A549 = assay: Antiproliferative activity against human A549 cells assessed as inhibition of cell growth incubated for 48 hrs by propidium iodide staining based fluorometer assay; type: functional; conditions: A549, 48 h
Tubulin (Sus scrofa) = Tubulin (Sus scrofa) (UniProt P02554+P02550); assay: Inhibition of pig brain tubulin polymerization at 25 uM measured after 15 mins by fluorescence based turbidimetry; type: tissue-based
Tubulin (Sus scrofa), sequence (P02550 whole entry, looked up): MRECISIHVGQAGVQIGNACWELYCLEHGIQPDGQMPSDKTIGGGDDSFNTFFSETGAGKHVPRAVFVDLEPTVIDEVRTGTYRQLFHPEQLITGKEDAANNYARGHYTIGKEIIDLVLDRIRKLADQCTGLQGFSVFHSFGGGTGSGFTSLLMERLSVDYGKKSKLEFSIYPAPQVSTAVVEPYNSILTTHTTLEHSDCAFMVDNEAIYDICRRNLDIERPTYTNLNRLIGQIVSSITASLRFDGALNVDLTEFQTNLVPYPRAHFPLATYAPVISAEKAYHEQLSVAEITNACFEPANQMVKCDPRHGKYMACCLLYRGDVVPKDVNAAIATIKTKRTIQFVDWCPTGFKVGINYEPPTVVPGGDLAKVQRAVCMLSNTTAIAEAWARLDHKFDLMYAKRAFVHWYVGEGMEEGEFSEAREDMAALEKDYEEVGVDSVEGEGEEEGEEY
Tubulin (Sus scrofa), sequence (P02554 whole entry, looked up): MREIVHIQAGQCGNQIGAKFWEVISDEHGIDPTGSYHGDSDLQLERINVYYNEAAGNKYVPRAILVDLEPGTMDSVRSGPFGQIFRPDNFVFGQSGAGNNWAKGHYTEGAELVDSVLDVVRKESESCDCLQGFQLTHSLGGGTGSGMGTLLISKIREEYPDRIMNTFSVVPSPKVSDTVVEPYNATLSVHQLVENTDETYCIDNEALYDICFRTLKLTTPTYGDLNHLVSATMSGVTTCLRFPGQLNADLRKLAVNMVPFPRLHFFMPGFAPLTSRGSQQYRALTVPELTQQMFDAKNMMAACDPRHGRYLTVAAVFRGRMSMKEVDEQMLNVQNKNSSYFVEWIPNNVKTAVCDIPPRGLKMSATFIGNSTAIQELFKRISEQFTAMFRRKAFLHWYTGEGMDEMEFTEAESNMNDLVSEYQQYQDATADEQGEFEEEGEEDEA

Sus scrofa = species: Sus scrofa; assay: Induction of pig brain microtubule stabilization at 25 uM measured after 15 mins by fluorescence based turbidimetry; type: tissue-based
[2] = biological target: Epidermal growth factor receptor (Homo sapiens, UniProt P00533); assay: Inhibition of recombinant 6His-tagged EGFR cytoplasmic domain (645 to 1186 residues) (unknown origin) autophosphorylation expressed in baculovirus infected Sf9 insect cells preincubated for 10 mins followed by ATP and MgCl2 addition measured after 60 mins by DELFIA/time-resolved fluorometric analysis
Epidermal growth factor receptor, sequence (P00533 whole entry, the tested form may be a part): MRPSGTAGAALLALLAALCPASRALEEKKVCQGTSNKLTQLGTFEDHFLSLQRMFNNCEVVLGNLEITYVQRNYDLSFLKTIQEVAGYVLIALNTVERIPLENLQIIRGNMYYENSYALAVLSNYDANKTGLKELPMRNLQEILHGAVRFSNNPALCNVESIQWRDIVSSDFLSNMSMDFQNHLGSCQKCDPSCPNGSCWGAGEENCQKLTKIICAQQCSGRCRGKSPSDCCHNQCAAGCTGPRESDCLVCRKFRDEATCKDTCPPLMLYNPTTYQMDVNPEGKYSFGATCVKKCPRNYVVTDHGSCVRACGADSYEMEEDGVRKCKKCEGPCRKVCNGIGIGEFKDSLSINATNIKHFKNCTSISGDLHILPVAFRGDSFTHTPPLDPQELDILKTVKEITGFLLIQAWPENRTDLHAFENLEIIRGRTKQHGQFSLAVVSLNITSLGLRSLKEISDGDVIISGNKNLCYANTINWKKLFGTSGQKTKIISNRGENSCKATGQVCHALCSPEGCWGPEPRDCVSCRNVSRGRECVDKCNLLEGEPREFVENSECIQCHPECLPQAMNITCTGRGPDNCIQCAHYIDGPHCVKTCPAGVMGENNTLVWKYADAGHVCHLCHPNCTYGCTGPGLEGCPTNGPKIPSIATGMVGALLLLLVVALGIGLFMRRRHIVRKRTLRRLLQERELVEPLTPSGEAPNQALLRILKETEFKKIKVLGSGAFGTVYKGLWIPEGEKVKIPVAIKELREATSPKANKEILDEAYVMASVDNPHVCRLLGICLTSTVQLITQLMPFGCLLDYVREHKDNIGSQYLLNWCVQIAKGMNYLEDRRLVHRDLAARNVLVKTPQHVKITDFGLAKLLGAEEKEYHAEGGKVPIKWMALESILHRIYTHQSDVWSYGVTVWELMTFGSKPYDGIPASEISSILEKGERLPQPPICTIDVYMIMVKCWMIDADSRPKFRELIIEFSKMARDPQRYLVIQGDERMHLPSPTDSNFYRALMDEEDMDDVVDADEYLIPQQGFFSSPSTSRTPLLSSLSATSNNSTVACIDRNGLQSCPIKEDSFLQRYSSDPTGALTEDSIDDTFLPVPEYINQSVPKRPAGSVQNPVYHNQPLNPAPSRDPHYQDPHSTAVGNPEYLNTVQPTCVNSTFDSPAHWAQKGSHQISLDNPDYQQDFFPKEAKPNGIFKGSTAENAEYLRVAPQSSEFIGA

[3] = Inhibition of full length mouse GST-tagged BRAF V600E mutant preincubated for 60 mins followed by addition of N-terminal His-tagged full length human MEK1 incubated for 25 mins in presence of ATP by ELISA assay
L5178Y [4] = assay: Reversal of multidrug resistance in mouse L5178Y cells transfected with human MDR1 assessed as reversal of rhodamine 123 accumulation at 50 ug/ml incubated for 30 mins by flow cytometry; type: functional, cell-based; conditions: dose 50.0 µg/ml
L5178Y [5] = assay: Reversal of multidrug resistance in mouse L5178Y cells transfected with human MDR1 assessed as reversal of rhodamine 123 accumulation at 5 ug/ml incubated for 30 mins by flow cytometry; type: functional, cell-based; conditions: dose 5.0 µg/ml
[6] = Toxicity in mouse L5178Y cells transfected with human MDR1 at 50 ug/ml after short period of incubation by tryptan blue assay; type: cell-based; conditions: dose 50 µg/ml
PANC-1 = assay: cells; conditions: Homo sapiens, PANC-1, 48 h
Description: Antiproliferative activity against human PANC-1 cells assessed as inhibition of cell growth incubated for 48 hrs by propidium iodide staining based fluorometer assay

HT-29 = assay: cells; conditions: Homo sapiens, HT-29, 48 h
Description: Antiproliferative activity against human HT-29 cells assessed as inhibition of cell growth incubated for 48 hrs by propidium iodide staining based fluorometer assay

NCI-H460 = assay: cells; conditions: Homo sapiens, NCI-H460, 48 h
Description: Antiproliferative activity against human NCI-H460 cells assessed as inhibition of cell growth incubated for 48 hrs by propidium iodide staining based fluorometer assay

PC-3 = assay: cells; conditions: Homo sapiens, PC-3, 48 h
Description: Antiproliferative activity against human PC-3 cells assessed as inhibition of cell growth incubated for 48 hrs by propidium iodide staining based fluorometer assay

SMILES | IC50 (MIA PaCa-2) | IC50 (MCF7) | IC50 (A549) | inhibition (Tubulin (Sus scrofa)) | IC50 [2] | IC50 [3] | IC50 (PANC-1) | IC50 (HT-29) | IC50 (NCI-H460) | IC50 (PC-3) | IC50 ([2]; sf9) | viability at 96 h [1] | Activity (Sus scrofa) | Activity (L5178Y [4]) | Activity (L5178Y [5]) | Activity [6]
COc1cc(/C=C2\CN(C)C/C(=C\c3cc(OC)c(OC)c(OC)c3Br)C2=NO)c(Br)c(OC)c1OC | 70 nM | 60 nM | 60 nM | inactive | 70 nM | 1600 nM | 90 nM | 70 nM | 80 nM | 90 nM | – | 96% | inactive | inactive | inactive | Non-Toxic
COc1cc(/C=C2\CC(C)c3ccccc3\C2=N\O)c(Br)c(OC)c1OC (stereo not given) | 2600 nM | 2500 nM | 2200 nM | Active | 3200 nM | 2400 nM | 2000 nM | 2100 nM | 1900 nM | 1900 nM | – | 98% | inactive | Active | inactive | Non-Toxic
COc1ccc(/C=C2\CCc3ccc([N+](=O)[O-])cc3\C2=N\O)c(Cl)c1OC | 90 nM | 70 nM | 80 nM | Active | 2000 nM | 900 nM | 90 nM | 90 nM | 80 nM | 20 nM | – | 93% | inactive | Active | inactive | Non-Toxic

More lines, in order of falling IC50 (MIA PaCa-2), values ahead:

IC50 (MIA PaCa-2) | IC50 (MCF7) | IC50 (A549) | inhibition (Tubulin (Sus scrofa)) | IC50 [2] | IC50 [3] | IC50 (PANC-1) | IC50 (HT-29) | IC50 (NCI-H460) | IC50 (PC-3) | IC50 ([2]; sf9) | SMILES | viability at 96 h [1] | Activity (Sus scrofa) | Activity (L5178Y [4]) | Activity (L5178Y [5]) | Activity [6]
2900 nM | 2200 nM | 1900 nM | Active | 8400 nM | 6300 nM | 2100 nM | 2200 nM | 2600 nM | 2200 nM | – | COc1cc2c(cc1OC)C(=N/O)/C(=C/c1cc(OC)c(OC)c(OC)c1Br)CC2 | 92% | inactive | Active | inactive | Non-Toxic
700 nM | 400 nM | 300 nM | Active | – | 2700 nM | 200 nM | 400 nM | 400 nM | 400 nM | 500 nM | COc1cc(/C=C2\CC(C)C/C(=C\c3cc(OC)c(OC)c(OC)c3Br)C2=NO)c(Br)c(OC)c1OC (stereo not given) | 98% | inactive | inactive | inactive | Non-Toxic
80 nM | 90 nM | 70 nM | inactive | 100 nM | 3200 nM | 90 nM | 90 nM | 70 nM | 80 nM | – | CCN(CC)CCON=C1/C(=C/c2cc(OC)c(OC)c(OC)c2Br)CN(C)C/C1=C\c1cc(OC)c(OC)c(OC)c1Br | 95% | inactive | inactive | inactive | Non-Toxic
